{"source": "patent US20220033405A1", "about": "“PHARMACEUTICAL COMPOSITION FOR PREVENTING OR TREATING CANCER CONTAINING PLK1 INHIBITOR AS ACTIVE INGREDIENT” (NATIONAL CANCER CENTER, priority 2018, published 2022)", "key": {"[1]": {"system": "SNU449 human liver cancer cells", "experiment": "Reactivity of M2 variants in SNU449", "type": "cell-based", "method": "To examine the ability of the compound to inhibit the growth of the breast cancer cell line, the compounds was treated at each indicated μM concentration 1 and 3 days after cell attachment, and the control was treated with a 0.1% solvent (DMSO). After another two days, the cell lines that were attached to the culture plate and grew were rinsed with 1×PBS and treated with 4% paraformaldehyde at room temperature for 10 minutes to fix the cells. Then, after cells were rinsed twice with PBS, the fixed cells were treated with a 0.5% Triton X-100 solution and reacted at room temperature for 15 minutes, rinsed another three times with PBS, and then treated with a DAPI reagent at 0.5 μg/ml, and reacted at 37° C. for 10 minutes to stain the cell nuclei. After the cells were additionally rinsed once with PBS, cells stained with DAPI were photographed by Cytation 3, and the resulting images were analyzed with Gen5 software (Biotek, USA). Meanwhile, cells that grew in a floating manner without being attached to the culture plate were treated with a 4% paraformaldehyde solution, reacted at room temperature for 10 minutes to fix the cells, and then photographed in a bright field by Cytation3, and the resulting images were analyzed by Gen5 software (Biotek, USA).\nTo analyze the ability to inhibit the growth of liver cancer cell lines, 6.6×10^3 HepG2 cells per well, 1×10^3 cells of each of Hep3B, SNU-475, and SNU-449 per well, and 2×10^3 SNU-387 cells per well were aliquoted in a 96-well plate, cultured in the same manner as described above, treated with Compound 2 (M2), Compound 3 (M4), Compound 4 (M21), Compound 5 (M23), and Compound 6 (M25), and then the ability to inhibit the growth of cells was analyzed."}, "[2]": {"system": "HepG2 orthotopic xenograft", "experiment": "Liver cancer orthotopic xenograft model (HepG2), 19 injections", "type": "in vivo, BalB/c nude mice", "conditions": "M2 9.1 mg/kg", "method": "5×10^6 HepG2 cells, which are a hepatocellular carcinoma cell line, were injected into the back skin of BalB/c nude mice, and when a sufficient cancer tissue was formed about 3 weeks later, the tissue was removed, uniformly cut into 1 mm^3, and transplanted into the right median lobe of the liver by excising the abdomen within 1 cm.\nThe doses of 9.1 mg/kg of M2 and 1 mg/kg of BI2536 were selected based on the present inventor's previous in vitro experiments on HCC cells. Administration began 7 days after cell injection, and an equivalent amount of DMSO for the highest concentration of drug was used as a solvent control for each experiment. Each drug was injected a total of 19 injections based on 5 times/week."}, "[3]": {"system": "HepG2 orthotopic xenograft", "experiment": "Liver cancer orthotopic xenograft model (HepG2), 5 and 20 mg/kg", "type": "in vivo, BalB/c nude mice", "conditions": "M2 5 and 20 mg/kg i.p. once every two days, 10 treatments for 3 weeks", "method": "Another experiment was performed on the same liver cancer cell line by varying the experimental method. 5×10^6 HepG2 cells were injected into the backs of BalB/c nude mice, and when a sufficient cancer tissue was formed about 3 weeks later, the tissue was removed, uniformly cut into 1 mm^3, and transplanted into the right median lobe of the liver by excising the abdomen within 1 cm.\nSmall spots were confirmed on the MRI image about 10 days after transplanting the liver cancer tissue into 20 BalB/C nude mice by the above method, so that rodents with well-established liver cancer were divided into 3 groups (about 50 to 60%) (see FIG. 21A), a control and a hit (M2) material at 5 mg/kg and 20 mg/kg were injected into the abdominal cavity once every two days using less than 1.5% DMSO as a solvent (vehicle), and once a week, MRI images were used to select (follow up) rodents with constant tissue growth. Then, in a state in which the rapidly growing cancer tissue was 1 cm or less, the cancer tissue was observed after sacrificing the mice (10 treatments for 3 weeks)."}}}
{"smiles": "Cn1c2nc(=O)[nH]c(=O)c-2nc2ccccc21", "note": "[Compound 2, 10-methyl-2H,3H,4H,10H-benzo[g]pteridine-2,4-dione]", "values": [{"measurement": "number of cancer cells", "setting": "[1]", "value": "the number of cancer cells was remarkably reduced in a dose-dependent manner"}, {"measurement": "progression of the HCC xenograft calculated by the growth inhibition index", "setting": "[2]; BI2536 1 mg/kg, 19 injections", "value": "suppressed the progression of the HCC xenograft"}, {"measurement": "growth of tumor cells (macroscopic morphology, MRI)", "setting": "[2]; BI2536 1 mg/kg, 19 injections, 5 times/week", "value": "the growth of tumor cells was suppressed"}, {"measurement": "mitotic index", "setting": "[2]; histological staining, compared to the control", "value": "decreased"}, {"measurement": "volume of the cancer tissue", "setting": "[3]", "value": "reduced remarkably as the dose of M2 was increased"}, {"measurement": "weight of the cancer tissue", "setting": "[3]", "value": "reduced remarkably as the dose of M2 was increased"}]}
